{
  "source": "paper PMC2680961",
  "about": "“Homologous desensitization of signalling by the alpha (α) isoform of the human thromboxane A2 receptor: A specific role for nitric oxide signalling” (Biochimica et Biophysica Acta, 2007)",
  "key": {"TPα^S145,S331,T337A": {"system": "TPα^S145,S331,T337A", "assay": "Intracellular calcium mobilization, HEK.TPα^S145,S331,T337A cells", "assay_type": "cell-based, human", "settings": "data not shown", "procedure": "Measurement of intracellular calcium mobilization ([Ca^2+]i) in FURA2/AM preloaded HEK 293 cell lines (2 × 10^6 cells/dish), each transiently co-transfected with pADVA (10 μg), and pCMV:Gαq (25 μg), was carried out as previously described. To investigate the effect of GRK2/βARK1 on TP-mediated [Ca^2+]i mobilization, HEK.TPα or HEK.TPβ cells (2 × 10^6 cells/dish) were co-transfected with pADVA (10 μg), pCMV:Gαq (25 μg) along with pRK5:βARK1^495–689 (25 μg), encoding a dominant negative form of GRK2/βARK1[39]. […] For each measurement of [Ca^2+]i mobilization, aliquots of cells were diluted to 0.825 × 10^6 cells/ml in HBSSHB, 1 mM CaCl2 and FURA2 fluorescence was recorded (2 ml aliquots of cells) at 37^ °C with gentle stirring with a Perkin Elmer-Cetus LS50-B spectrofluorometer at excitation wavelengths of 340 nm and 380 nm and emission wavelength of 510 nm, respectively.\nCells were stimulated with the TP agonist U46619 (1 μM) and changes in [Ca^2+]i mobilization were monitored as a function of time. […]\nThe vehicle had no effect on U46619-mediated [Ca^2+]i mobilization. Calibration of the signal was performed in each sample by adding 0.2% Triton X-100 to obtain the maximal fluorescence ratio (Rmax) and then 1 mM EGTA to obtain the minimal fluorescence ratio (Rmin). […]"}, "TP^S145A,Δ328": {"target": "T1, TP^S145A,Δ328 (Homo sapiens, UniProt P21731, S145A)", "T1 construct": "expressed in transfected cells", "T1 sequence (P21731 1-328 S145A)": "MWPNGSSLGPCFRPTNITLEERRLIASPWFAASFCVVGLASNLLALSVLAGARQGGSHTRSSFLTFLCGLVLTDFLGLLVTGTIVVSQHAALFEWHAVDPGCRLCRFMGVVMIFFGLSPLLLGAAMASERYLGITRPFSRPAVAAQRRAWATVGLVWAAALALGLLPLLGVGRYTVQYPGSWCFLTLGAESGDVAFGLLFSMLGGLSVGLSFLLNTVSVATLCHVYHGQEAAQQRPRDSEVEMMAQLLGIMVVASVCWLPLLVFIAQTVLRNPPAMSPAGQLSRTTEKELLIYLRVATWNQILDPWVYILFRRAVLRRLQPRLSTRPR", "assay": "[3H]SQ29,548 radioligand binding, Scatchard analysis, HEK.TP^S145A,Δ328", "procedure": "(§1) Cells were harvested by centrifugation at 500×g at 4 °C for 5 min and washed three times with ice-cold Ca^2+/Mg^2+-free phosphate-buffered saline (PBS). TP radioligand binding assays were carried out at 30 °C for 30 min in 100 μl reactions in the presence of 0–40 nM [^3H] […] Protein determinations were carried out using the Bradford assay.\n(§2) Radioligand binding and Scatchard analysis data were analysed using GraphPad Prisim V4.0 programme (GraphPad Software Inc., San Diego CA, USA). Statistical analyses were carried out using the unpaired Student's t test using the Statworks Analysis Package. p-values ≤ 0.01 indicated statistically significant differences."}, "TPα^S329A": {"target": "T2, TPα^S329A (Homo sapiens, UniProt P21731, S329A)", "T2 construct": "expressed in transfected cells", "T2 sequence (P21731 1-343 S329A)": "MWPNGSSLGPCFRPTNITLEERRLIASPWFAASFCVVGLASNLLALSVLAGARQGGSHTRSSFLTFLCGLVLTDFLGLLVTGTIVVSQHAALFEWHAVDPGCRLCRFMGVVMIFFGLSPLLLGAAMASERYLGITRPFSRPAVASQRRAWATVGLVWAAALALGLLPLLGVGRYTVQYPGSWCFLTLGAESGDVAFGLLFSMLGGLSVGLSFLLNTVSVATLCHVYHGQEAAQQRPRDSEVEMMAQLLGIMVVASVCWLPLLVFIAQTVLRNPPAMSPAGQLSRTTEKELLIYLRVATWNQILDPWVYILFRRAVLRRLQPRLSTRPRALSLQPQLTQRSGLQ", "assay": "[3H]SQ29,548 radioligand binding, Scatchard analysis, HEK.TPα^S329A", "procedure": "as §1, §2"}},
  "data": [
    {"smiles": "CCCCC[C@H](O)/C=C/[C@@H]1[C@@H](C/C=C\\CCCC(=O)O)[C@H]2CO[C@@H]1C2", "note": "[U46619]", "values": [
      {"measurement": "secondary U46619 [Ca2+]i response relative to primary response", "setting": "TPα^S145,S331,T337A", "result": 55, "unit": "%"}
    ]},
    {"smiles": "O=C(O)CCC/C=C\\C[C@@H]1[C@H](CNNC(=O)Nc2ccccc2)[C@H]2CC[C@@H]1O2", "note": "[SQ29,548]", "values": [
      {"measurement": "Bmax (pmol/mg protein ± S.E.M.)", "setting": "TP^S145A,Δ328", "result": "3.83 ± 0.03", "unit": "pmol/mg protein"},
      {"measurement": "Bmax (pmol/mg protein ± S.E.M.)", "setting": "TPα^S329A", "result": "4.43 ± 0.04", "unit": "pmol/mg protein"}
    ]}
  ]
}
